From patent US5948792A, “Fluorine-containing 1,4-disubstituted piperidine derivatives” (Banyu Pharmaceutical Co., Ltd., priority 1996, dated 1999)

Legend:
Muscarinic M2 receptor = molecular target: T1, Muscarinic M2 receptor (Homo sapiens, UniProt P08172); assay: Inhibition of binding of [3H]-N-methylscopolamine to muscarinic M2 receptor; conditions: CHO cell membranes expressing cloned human receptor; 0.2 nM [3H]-N-methylscopolamine, pH 7.4, 2 hours, 25° C; read-out: Ki M2 (inhibitory effects on binding to muscarinic M2 receptor)
T1 construct: purchased Receptor Biology, Inc; host or cells: CHO cells (membranes)
T1 sequence (P08172 1-466): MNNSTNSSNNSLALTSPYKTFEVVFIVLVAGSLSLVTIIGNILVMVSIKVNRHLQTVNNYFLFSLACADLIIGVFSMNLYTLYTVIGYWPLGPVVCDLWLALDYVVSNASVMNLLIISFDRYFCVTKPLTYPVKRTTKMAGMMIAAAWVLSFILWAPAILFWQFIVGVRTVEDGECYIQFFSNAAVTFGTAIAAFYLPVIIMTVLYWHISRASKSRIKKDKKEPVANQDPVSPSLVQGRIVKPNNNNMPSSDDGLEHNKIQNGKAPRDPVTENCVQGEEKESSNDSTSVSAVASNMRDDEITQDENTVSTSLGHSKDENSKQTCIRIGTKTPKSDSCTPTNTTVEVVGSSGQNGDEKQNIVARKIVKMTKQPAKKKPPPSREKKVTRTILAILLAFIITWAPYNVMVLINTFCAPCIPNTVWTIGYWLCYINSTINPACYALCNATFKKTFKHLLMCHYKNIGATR
Protocol: (§1) Tests on Inhibition of Binding to Muscarinic Receptors
(§2) These tests were performed according to a modification of the method of Hargreaves et al. (Br. J. Pharmacol. 107: 494-501, 1992). Membranes from CHO cells expressing cloned human m1-m5 (Receptor Biology, Inc.) were incubated with 0.2 nM [^3 H]-N-methylscopolamine and each a compound of the present invention to be tested in 0.5 ml of 50 mM Tris-HCl-10 mM MgCl2 -1 mM EDTA (pH 7.4) for 2 hours at 25° C. Free and membrane-bound [^3 H]-N-methylscopolamine were separated by filtration over glass filters (UniFilter-GF/C; Packard Instruments Co., Inc.) using cell harvester (Filtermate™ 196; Packard Instruments Co., Inc.). Then the filter was washed four times with 1 ml of ice-cold Tris-HCl (pH 7.4) and dried at 50° C. After adding a scintillator (Microscinti 0; Packard Instruments Co., Inc.), the radioactivity was counted by a liquid scintillation counter (TopCount™; Packard Instruments Co., Inc.). Non-specific binding was measured in the presence of 1 μM N-methylscopolamine.

airway M3 receptor = molecular target: T2, airway M3 receptor (Rattus norvegicus, UniProt P08483); assay: Antagonism to the airway M3 receptor in an isolated rat trachea (in vitro); format: cell-based
T2 construct: the trachea was isolated; from tissue; host or cells: isolated trachea of male SD strain rat
T2 sequence (P08483 whole entry): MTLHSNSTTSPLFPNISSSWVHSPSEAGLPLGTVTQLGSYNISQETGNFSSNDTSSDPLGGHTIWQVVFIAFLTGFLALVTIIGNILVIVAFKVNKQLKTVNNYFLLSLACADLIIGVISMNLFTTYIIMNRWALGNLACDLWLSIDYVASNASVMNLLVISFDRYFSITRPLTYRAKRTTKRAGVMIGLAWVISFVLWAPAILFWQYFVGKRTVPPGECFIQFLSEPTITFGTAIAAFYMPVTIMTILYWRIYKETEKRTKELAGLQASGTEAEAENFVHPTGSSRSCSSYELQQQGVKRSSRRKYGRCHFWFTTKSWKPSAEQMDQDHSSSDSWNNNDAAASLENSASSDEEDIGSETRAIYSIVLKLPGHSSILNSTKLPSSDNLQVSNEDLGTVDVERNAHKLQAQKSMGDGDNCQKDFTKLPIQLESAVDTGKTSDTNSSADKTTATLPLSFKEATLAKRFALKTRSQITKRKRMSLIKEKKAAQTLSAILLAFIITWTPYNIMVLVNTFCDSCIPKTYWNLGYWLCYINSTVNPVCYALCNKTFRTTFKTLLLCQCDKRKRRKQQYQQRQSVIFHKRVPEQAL
Protocol: (§3) Tests for Antagonism to Muscarinic Receptors (in vitro)
2) Tests for Antagonism to the Airway M3 Receptor in an Isolated Rat Trachea
These tests were performed according to a conventional method. A male SD strain rat (weighing 300-500 g) was killed by exsanguination, and the trachea was isolated. Annular segments (2 mm wide) were cut out from the trachea and cut transversely at the anterior cartilage part to make open ring preparation. A preparation was suspended in a Magnus tube filled with 5 ml of Krebs-Henseleit solution (gassed with 95% O2 -5% CO2 and kept at 32° C.) with an initial tension of 1.0 g and a resting tension of 0.6 g. The tension of the preparation was recorded isometrically. After being equilibrated for an hour, the preparation was made to contract twice by treatment with 10^-4 M carbachol, and the second contraction induced by carbachol was used as the reference contraction. After the preparation was washed with fresh solution to be restored to the base line, a test compound was administered thereto (or no treatment was given). Ten minutes later, carbachol (10^-8 to 10^-3 M) was cumulatively administered in three-fold increasing doses to obtain a dose-response curve. The dose-response curve was plotted by expressing responses as percentages based on the reference contraction of the preparation as 100%. The antagonistic potency (K^B value) of the test compound was determined from the degree of shift of the dose-response curve obtained by treatment with the test compound.

M2 receptor = molecular target: T3, M2 receptor (Rattus norvegicus, UniProt P10980); assay: Antagonism to M2 receptor in an isolated rat right atrium (in vitro); format: cell-based; conditions: carbachol-induced decrease in heart rate
T3 construct: the right atrium was isolated; from tissue; host or cells: isolated right atrium of male SD strain rat
T3 sequence (P10980 1-466): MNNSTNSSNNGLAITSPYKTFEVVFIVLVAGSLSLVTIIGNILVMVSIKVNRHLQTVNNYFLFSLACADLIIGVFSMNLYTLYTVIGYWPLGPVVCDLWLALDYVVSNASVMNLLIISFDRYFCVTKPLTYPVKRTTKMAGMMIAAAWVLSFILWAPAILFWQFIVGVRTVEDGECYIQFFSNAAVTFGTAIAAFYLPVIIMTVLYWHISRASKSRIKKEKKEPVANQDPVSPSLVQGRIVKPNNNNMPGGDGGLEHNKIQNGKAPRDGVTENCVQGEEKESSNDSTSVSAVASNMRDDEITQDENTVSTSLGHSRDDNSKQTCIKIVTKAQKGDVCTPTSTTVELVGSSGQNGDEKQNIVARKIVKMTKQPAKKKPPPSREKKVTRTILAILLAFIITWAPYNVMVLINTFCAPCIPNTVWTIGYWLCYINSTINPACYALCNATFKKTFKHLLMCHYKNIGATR
Protocol: as §3
1) Tests for Antagonism to M2 receptor in an Isolated Rat Right Atrium
These tests were performed according to a conventional method. A male SD strain rat (weighing 300-500 g) was killed by exsanguination, and the right atrium was isolated. This preparation was isometrically suspended in organ bath filled with 20 ml of Krebs-Henseleit solution (gassed with 95% O2 -5% CO2 and kept at 32° C.) with an initial tension of 0.5 g. The heart rate was recorded with a heart rate counter. After the preparation was equilibrated for 30 minutes, carbachol (10^-9 to 10^-6 M) was cumulatively administered in three-fold increasing doses. Thus, a decrease in heart rate was measured to obtain a dose-response curve for the control experiment. After the preparation was washed with fresh solution to restore the heart rate, a test compound was administered thereto. Ten minutes later, carbachol was cumulatively administered again. Responses to carbachol were expressed as percentages based on the heart rate before administration of carbachol as 100%. The antagonistic potency (KB value) of the test compound was determined from the degree of shift of the dose-response curve obtained by treatment with individual test compound of the present invention.

Muscarinic M3 Receptor [1] = molecular target: T4, Muscarinic M3 Receptor (Rattus norvegicus, UniProt P08483); assay: Bronchodilation in rats (i.v.), inhibition of acetylcholine-induced increase in airway resistance; format: in vivo; conditions: iv, 5 min, acetylcholine 50 μg/kg i.v. 5 minutes after test compound, read-out: Inhibition of Airway Contraction ED50 iv
T4 construct: male rats of the Sprague-Dawley strain; from tissue; host or cells: airways of living male Sprague-Dawley rats (in vivo)
T4 sequence (P08483 whole entry): as the sequence (P08483 whole entry) above
Protocol: Tests for Antagonism Against Muscarinic M3 Receptor (in vivo)
1-A) Tests for Bronchodilation in Rats (i.v.).
Eight- to eleven-weeks-old male rats of the Sprague-Dawley strain, weighing 380-420 g, were anesthetized with urethane (750 mg/kg. i.p.) and α-chloralose (37.5 mg/kg, i.p.). The bronchus of each rat was intubated, and the right jugular vein was cannulated for drug administration. […] To evoke an increase in airway resistance, acetylcholine (50 μg/kg, i.v.) was administered to the animals. The acetylcholine-induced airway resistance increase was measured 5 minutes before and 5 minutes after administration of test compound, and the ratio of the airway resistance of the latter to the former was calculated. In controls, isotonic sodium chloride solution was used in place of the test compounds and otherwise identical procedures were repeated, the calculated ratio being set to be 100%.

Muscarinic M3 receptor [2] = molecular target: T5, Muscarinic M3 receptor (Homo sapiens, UniProt P20309); assay: Inhibition of binding of [3H]-N-methylscopolamine to muscarinic M3 receptor; conditions: for Ki: CHO cell membranes expressing cloned human receptor, 0.2 nM [3H]-N-methylscopolamine, pH 7.4, 2 hours, 25° C, read-out: Ki M3 (inhibitory effects on binding to muscarinic M3 receptor); for M2/M3 (ratio of binding Ki): selectivity ratio of Ki values
T5 construct: purchased Receptor Biology, Inc; host or cells: CHO cells (membranes)
T5 sequence (P20309 whole entry): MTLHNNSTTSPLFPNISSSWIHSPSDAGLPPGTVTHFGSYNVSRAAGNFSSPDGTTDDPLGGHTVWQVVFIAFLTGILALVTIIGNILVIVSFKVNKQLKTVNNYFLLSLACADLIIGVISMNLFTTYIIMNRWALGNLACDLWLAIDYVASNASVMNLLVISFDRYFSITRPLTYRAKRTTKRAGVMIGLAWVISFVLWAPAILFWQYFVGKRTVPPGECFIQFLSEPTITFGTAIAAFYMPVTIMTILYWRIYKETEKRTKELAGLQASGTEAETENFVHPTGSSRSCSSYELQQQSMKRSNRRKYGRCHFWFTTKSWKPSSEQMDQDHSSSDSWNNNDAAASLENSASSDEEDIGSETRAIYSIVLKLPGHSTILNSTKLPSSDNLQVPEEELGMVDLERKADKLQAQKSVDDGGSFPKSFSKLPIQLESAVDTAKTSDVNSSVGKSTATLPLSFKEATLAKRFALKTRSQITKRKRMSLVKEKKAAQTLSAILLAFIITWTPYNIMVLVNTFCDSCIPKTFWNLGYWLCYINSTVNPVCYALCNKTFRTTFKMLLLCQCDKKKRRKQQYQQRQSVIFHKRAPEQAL
Protocol: as §1, §2

CC(C)=CCCN1CCC(NC(=O)[C@](O)(c2ccccc2)[C@@H]2CCC(F)(F)C2)CC1 [Example 1, (2R)-N-[1-(4-methyl-3-pentenyl)piperidin-4-yl]-2-[(1R)-3,3-difluorocyclopentyl]-2-hydroxy-2-phenylacetamide]
Ki (Muscarinic M2 receptor): 3.2 µM
Kb (airway M3 receptor; isolated rat trachea, carbachol-induced contraction): 6.3 nM
M2/M3 (ratio of KB) (airway M3 receptor; selectivity ratio of KB values, right atrium M2 / trachea M3): 160
Kb (M2 receptor): 1000 nM
ED50 (Muscarinic M3 Receptor [1]): 0.033 mg/kg
Ki (Muscarinic M3 receptor [2]): 5.5 nM
M2/M3 (ratio of binding Ki) (Muscarinic M3 receptor [2]): 590

Cc1cccc(CN2CCC(NC(=O)[C@](O)(c3ccccc3)[C@@H]3CCC(F)(F)C3)CC2)n1 [Example 10, (2R)-N-[1-(6-methylpyridin-2-ylmethyl)piperidin-4-yl]-2-[(1R)-3,3-difluorocyclopentyl]-2-hydroxy-2-phenylacetamide]
Ki (Muscarinic M2 receptor): 17 µM
Ki (Muscarinic M3 receptor [2]): 8.9 nM
M2/M3 (ratio of binding Ki) (Muscarinic M3 receptor [2]): 1900

O=C(NC1CCN(Cc2ccoc2)CC1)[C@](O)(c1ccccc1)[C@@H]1CCC(F)(F)C1 [Example 12, (2R)-N-[1-(3-furylmethyl)piperidin-4-yl]-2-[(1R)-3,3-difluorocyclopentyl]-2-hydroxy-2-phenylacetamide]
Ki (Muscarinic M2 receptor): 8.6 µM

O=C(NC1CCN(Cc2ccccn2)CC1)[C@](O)(c1ccccc1)[C@@H]1CCC(F)(F)C1 [Example 14, (2R)-N-[1-(2-pyridylmethyl)piperidin-4-yl]-2-[(1R)-3,3-difluorocyclopentyl]-2-hydroxy-2-phenylacetamide]
Ki (Muscarinic M2 receptor): 1.4 µM
Ki (Muscarinic M3 receptor [2]): 10 nM
M2/M3 (ratio of binding Ki) (Muscarinic M3 receptor [2]): 140

COc1cccc(CN2CCC(NC(=O)[C@](O)(c3ccccc3)[C@@H]3CCC(F)(F)C3)CC2)c1 [Example 15, (2R)-N-[1-(3-methoxybenzyl)piperidin-4-yl]-2-[(1R)-3,3-difluorocyclopentyl]-2hydroxy-2-phenylacetamide]
Ki (Muscarinic M2 receptor): 1 µM

COc1cc(N)nc(CN2CCC(NC(=O)[C@](O)(c3ccccc3)[C@@H]3CCC(F)(F)C3)CC2)c1.Cl.Cl [Example 21, (2R)-N-[1-(6-amino-4-methoxypyridin-2-ylmethyl)piperidin-4-yl]-2-[(1R)-3,3-difluorocyclopentyl]-2-hydroxy-2-phenylacetamide dihydrochloride]
Ki (Muscarinic M2 receptor): 50 µM
Ki (Muscarinic M3 receptor [2]): 22 nM
M2/M3 (ratio of binding Ki) (Muscarinic M3 receptor [2]): 2300

Cc1cc(N)cc(CN2CCC(NC(=O)[C@](O)(c3ccccc3)[C@@H]3CCC(F)(F)C3)CC2)c1.Cl.Cl [Example 22, (2R)-N-[1-(3-amino-5-methylbenzyl)piperidin-4-yl]-2-[(1R)-3,3-difluorocyclopentyl]-2-hydroxy-2-phenylacetamide dihydrochloride]
Ki (Muscarinic M2 receptor): 13 µM
Ki (Muscarinic M3 receptor [2]): 19 nM
M2/M3 (ratio of binding Ki) (Muscarinic M3 receptor [2]): 680

Nc1cc(N)cc(CN2CCC(NC(=O)[C@](O)(c3ccccc3)[C@@H]3CCC(F)(F)C3)CC2)c1 [Example 27, (2R)-N-[1-(3,5-diaminobenzyl)piperidin-4-yl]-2-[(1R)-3,3-difluorocyclopentyl]-2-hydroxy-2-phenylacetamide]
Ki (Muscarinic M2 receptor): 4.2 µM
Ki (Muscarinic M3 receptor [2]): 20 nM
M2/M3 (ratio of binding Ki) (Muscarinic M3 receptor [2]): 210

COc1cc(N)cc(CN2CCC(NC(=O)[C@](O)(c3ccccc3)[C@@H]3CCC(F)(F)C3)CC2)c1.Cl.Cl [Example 31, (2R)-N-[1-(3-amino-5-methoxybenzyl)piperidin-4-yl]-2-[(1R)-3,3-difluorocyclopentyl]-2-hydroxy-2-phenylacetamide dihydrochloride]
Ki (Muscarinic M2 receptor): 10 µM
Ki (Muscarinic M3 receptor [2]): 19 nM
M2/M3 (ratio of binding Ki) (Muscarinic M3 receptor [2]): 520

CN1C2CCC1CC(OC(=O)C(CO)c1ccccc1)C2 (stereo not shown) [atoropine, reference compound]
ED50 (Muscarinic M3 Receptor [1]): 0.0043 mg/kg
